In US11667645B2, “Granzyme B directed imaging and therapy” (CytoSite Biopharma Inc., priority 2018, dated 2023):

Biological target: Granzyme B (human lymphocytes) (Homo sapiens (Human), UniProt P10144)
Assay: human Granzyme B biochemical assay
Conditions: Granzyme B (human lymphocytes) 5 nM, substrate Ac-IETD-AFC 200 μM, Cpd incubation with enzyme 30 mins, 22° C., read time 60 mins; read-out: IC50
Summary of the method: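 Fluorogenic Ac-IETD-AFC cleavage (Ex 400/Em 505 nm) read after 60 min at 22 °C, following 30 min, 22 °C enzyme–compound pre-incubation. Working stocks: enzyme 10 nM in 0.1% BSA buffer, substrate 800 µM, compound 8 points, 3.16-fold from 40 µM. Controls set 0% (DMSO) and 100% (standard inhibitor) inhibition; IC50 fitted.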

Sequence of Granzyme B (human lymphocytes) (P10144 21-247): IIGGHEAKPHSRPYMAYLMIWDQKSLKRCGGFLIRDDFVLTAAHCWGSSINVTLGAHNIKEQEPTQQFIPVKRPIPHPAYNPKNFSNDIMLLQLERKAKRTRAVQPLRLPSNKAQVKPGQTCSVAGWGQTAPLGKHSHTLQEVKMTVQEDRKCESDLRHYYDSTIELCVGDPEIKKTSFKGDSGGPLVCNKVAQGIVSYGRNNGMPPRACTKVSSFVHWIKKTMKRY

Row | Compound | IC50 [nM]
1 | CC(=O)N[C@@H](C)C(=O)N[C@H]1CCc2cccc3c2N(C1=O)[C@H](C(=O)NCc1c[nH]nn1)C3 [Compound C024, (2S,5S)-5-((S)-2-Acetylamino-propionylamino)-4-oxo-1,2,4,5,6,7-hexahydro-azepino[3,2,1-hi]indole-2-carboxylic acid (1H-[1,2,3]triazol-4-ylmethyl)-amide] | > 5000
2 | O=C(Cc1csc2ccccc12)N[C@H](C(=O)N[C@H]1CCc2cccc3c2N(C1=O)[C@H](C(=O)NCc1c[nH]nn1)C3)c1ccccc1 [Compound C009, (2S,5S)-5-[(S)-2-(2-Benzo[b]thiophen-3-yl-acetylamino)-2-phenyl-acetylamino]-4-oxo-1,2,4,5,6,7-hexahydro-azepino[3,2,1-hi]indole-2-carboxylic acid (1H-[1,2,3]triazol-4-ylmethyl)-amide] | > 5000
3 | O=C(N[C@@H](Cc1ccc(F)cc1)C(=O)N[C@H]1CCc2cccc3c2N(C1=O)[C@H](C(=O)NCc1c[nH]nn1)C3)c1ccccc1 [Compound C043, (2S,5S)-5-[(S)-2-Benzoylamino-3-(4-fluoro-phenyl)-propionylamino]-4-oxo-1,2,4,5,6,7-hexahydro-azepino[3,2,1-hi]indole-2-carboxylic acid (1H-[1,2,3]triazol-4-ylmethyl)-amide] | > 5000
4 | O=C(Cc1ccccc1)N[C@@H](CO)C(=O)N[C@H]1CCc2cccc3c2N(C1=O)[C@H](C(=O)NCc1c[nH]nn1)C3 [Compound C018, (2S,5S)-5-((S)-3-Hydroxy-2-phenylacetylamino-propionylamino)-4-oxo-1,2,4,5,6,7-hexahydro-azepino[3,2,1-hi]indole-2-carboxylic acid (1H-[1,2,3]triazol-4-ylmethyl)-amide] | > 5000
5 | CC(=O)NCC(=O)N[C@H]1CCc2cccc3c2N(C1=O)[C@H](C(=O)NCc1c[nH]nn1)C3 [Compound C023, (2S,5S)-5-(2-Acetylamino-acetylamino)-4-oxo-1,2,4,5,6,7-hexahydro-azepino[3,2,1-hi]indole-2-carboxylic acid (1H-[1,2,3]triazol-4-ylmethyl)-amide] | > 5000
6 | O=C(Cc1ccccc1)N[C@@H](Cc1ccc(O)cc1)C(=O)N[C@H]1CCc2cccc3c2N(C1=O)[C@H](C(=O)NCc1c[nH]nn1)C3 [Compound C021, (2S,5S)-5-[(S)-3-(4-Hydroxy-phenyl)-2-phenylacetylamino-propionylamino]-4-oxo-1,2,4,5,6,7-hexahydro-azepino[3,2,1-hi]indole-2-carboxylic acid (1H-[1,2,3]triazol-4-ylmethyl)-amide] | 1000 to 5000
7 | O=C(Cc1ccccc1)N[C@@H](Cc1ccc(F)cc1)C(=O)N[C@H]1CCc2cccc3c2N(C1=O)[C@H](C(=O)NCc1c[nH]nn1)C3 [Compound C022, (2S,5S)-5-[(S)-3-(4-Fluoro-phenyl)-2-phenylacetylamino-propionylamino]-4-oxo-1,2,4,5,6,7-hexahydro-azepino[3,2,1-hi]indole-2-carboxylic acid (1H-[1,2,3]triazol-4-ylmethyl)-amide] | > 5000
8 | CC[C@H](C)[C@H](NC(=O)c1ccccc1OC)C(=O)N[C@H]1CCc2cccc3c2N(C1=O)[C@H](C(=O)NCc1c[nH]nn1)C3 [Compound C060, (2S,5S)-5-[(2S,3S)-2-(2-Methoxy-benzoylamino)-3-methyl-pentanoylamino]-4-oxo-1,2,4,5,6,7-hexahydro-azepino[3,2,1-hi]indole-2-carboxylic acid(1H-[1,2,3]triazol-4-ylmethyl)-amide] | 1 to 300
9 | O=C(Cc1csc2ccccc12)N[C@@H](Cc1ccc(F)cc1)C(=O)N[C@H]1CCc2cccc3c2N(C1=O)[C@H](C(=O)NCc1c[nH]nn1)C3 [Compound C011, (2S,5S)-5-[(S)-2-(2-Benzo[b]thiophen-3-yl-acetylamino)-3-(4fluoro-phenyl)-propionylamino]-4-oxo-1,2,4,5,6,7-hexahydro-azepino[,3,2,1-hi]indole-2-carboxylic acid (1H-[1,2,3]triazol-4-ylmethyl)-amide] | > 5000
10 | O=C(N[C@@H](CO)C(=O)N[C@H]1CCc2cccc3c2N(C1=O)[C@H](C(=O)NCc1c[nH]nn1)C3)c1ccccc1 [Compound C040, (2S,5S)-5-((S)-2-Benzoylamino-3-hydroxy-propionylamino)-4-oxo-1,2,4,5,6,7-hexahydro-azepino[3,2,1-hi]indole-2-carboxylic acid (1H-[1,2,3]triazol-4-ylmethyl)-amide] | > 5000

The remaining lines, values ahead:

Row | IC50 [nM] | Compound
11 | 1 to 300 | CC[C@H](C)[C@H](NC(=O)COCCF)C(=O)N[C@H]1CCc2cccc3c2N(C1=O)[C@H](C(=O)NCc1nn[nH]n1)C3 [Compound C119, (2S,5S)-5-{(2S,3S)-2-[2-(2-Fluoro-ethoxy)-acetylamino]-3-methyl-pentanoylamino}-4-oxo-1,2,4,5,6,7-hexahydro-azepino[3,2,1-hi]indole-2-carboxylic acid (2H-tetrazol-5-ylmethyl)-amide]
12 | > 5000 | COC(=O)[C@H](CO)NC(=O)[C@@H]1Cc2cccc3c2N1C(=O)[C@@H](NC(=O)[C@@H](NC(C)=O)C(C)C)CC3 [Compound C091, (S)-2-{[(2S,5S)-5-((S)-2-Acetylamino-3-methyl-butyrylamino)-4-oxo-1,2,4,5,6,7-hexahydro-azepino[3,2,1-hi]indole-2-carbonyl]-amino}-3-hydroxy-propionic acid methyl ester]
13 | 301 to 1000 | O=C(Cc1csc2ccccc12)N[C@H](C(=O)N[C@H]1CCc2cccc3c2N(C1=O)[C@H](C(=O)NCc1c[nH]nn1)C3)C1CCCCC1 [Compound C078, (2S,5S)-5-[(S)-2-(2-Benzo[b]thiophen-3-yl-acetylamino)-2-cyclohexyl-acetylamino]-4-oxo-1,2,4,5,6,7-hexahydro-azepino[3,2,1-hi]indole-2-carboxylic acid (1H-[1,2,3]triazol-4-ylmethyl)-amide]
14 | > 5000 | CC[C@H](C)[C@H](NC(=O)COCCF)C(=O)N[C@H]1CCc2cccc3c2N(C1=O)[C@H](C(=O)NCc1ccc[nH]1)C3 [Compound C104, (2S,5S)-5-{(2S,3S)-2-[2-(2-Fluoro-ethoxy)-acetylamino]-3-methyl-pentanoylamino}-4-oxo-1,2,4,5,6,7-hexahydro-azepino[3,2,1-hi]indole-2-carboxylic acid (1H-pyrrol-2-ylmethyl)-amide]
15 | > 5000 | CC[C@H](C)[C@H](NC(=O)COCCF)C(=O)N[C@H]1CCc2cccc3c2N(C1=O)[C@H](C(=O)NCc1cccc(Cl)c1)C3 [Compound C131, (2S,5S)-5-{(2S,3S)-2-[2-(2-Fluoro-ethoxy)-acetylamino]-3-methyl-pentanoylamino}-4-oxo-1,2,4,5,6,7-hexahydro-azepino[3,2,1-hi]indole-2-carboxylic acid 3-chloro-benzylamide]
16 | 1 to 300 | CC[C@H](C)[C@H](NC(=O)Cc1cc2ccccc2[nH]1)C(=O)N[C@H]1CCc2cccc3c2N(C1=O)[C@H](C(=O)NCc1c[nH]nn1)C3 [Compound C161, (2S,5S)-5-[(2S,3S)-2-(2-1H-Indol-2-yl-acetylamino)-3-methyl-pentanoylamino]-4-oxo-1,2,4,5,6,7-hexahydro-azepino[3,2,1-hi]indole-2-carboxylicacid (1H-[1,2,3]triazol-4-ylmethyl)-amide]
17 | 1 to 300 | CC[C@H](C)[C@H](NC(=O)Cc1nc2ccccc2o1)C(=O)N[C@H]1CCc2cccc3c2N(C1=O)[C@H](C(=O)NCc1c[nH]nn1)C3 [Compound C160, (2S,5S)-5-[(2S,3S)-2-(2-Benzooxazol-2-yl-acetylamino)-3-methyl-pentanoylamino]-4-oxo-1,2,4,5,6,7-hexahydro-azepino[3,2,1-hi]indole-2-carboxylic acid (1H-[1,2,3]triazol-4-ylmethyl)-amide]
18 | > 5000 | CC[C@H](C)[C@H](NC(=O)COCCF)C(=O)N[C@H]1CCc2cccc3c2N(C1=O)[C@H](C(=O)NCc1cn[nH]c1)C3 [Compound C116]
19 | 1 to 300 | CC(=O)N[C@H](C(=O)N[C@H]1CCc2cccc3c2N(C1=O)[C@H](C(=O)NCc1c[nH]nn1)C3)C1CCC1 [Compound C083, (2S,5S)-5-((S)-2-Acetylamino-2-cyclobutyl-acetylamino)-4-oxo-1,2,4,5,6,7-hexahydro-azepino[3,2,1-hi]indole-2-carboxylic acid (1H-[1,2,3]triazol-4-ylmethyl)-amide]
20 | 1 to 300 | O=C(N[C@H](C(=O)N[C@H]1CCc2cccc3c2N(C1=O)[C@H](C(=O)NCc1c[nH]nn1)C3)C1CCCC1)c1ccccc1 [Compound C076, (2S,5S)-5-((S)-2-Benzoylamino-2-cyclopentyl-acetylamino)-4-oxo-1,2,4,5,6,7-hexahydro-azepino[3,2,1-hi]indole-2-carboxylic acid (1H-[1,2,3]triazol-4-ylmethyl)-amide]
21 | 301 to 1000 | CC(=O)N[C@H](C(=O)N[C@H]1CCc2cccc3c2N(C1=O)[C@H](C(=O)NCc1c[nH]nn1)C3)C1CCCCC1 [Compound C080, (2S,5S)-5-((S)-2-Acetylamino-2-cyclohexyl-acetylamino)-4-oxo-1,2,4,5,6,7-hexahydro-azepino[3,2,1-hi]indole-2-carboxylic acid (1H-[1,2,3]triazol-4-ylmethyl)-amide]
22 | > 5000 | CC[C@H](C)[C@H](NC(=O)COCCF)C(=O)N[C@H]1CCc2cccc3c2N(C1=O)[C@H](C(=O)NCc1cnc[nH]1)C3 [Compound C110, (2S,5S)-5-{(2S,3S)-2-[2-(2-Fluoro-ethoxy)-acetylamino]-3-methyl-pentanoylamino}-4-oxo-1,2,4,5,6,7-hexahydro-azepino[3,2,1-hi]indole-2-carboxylic acid (3H-imidazol-4-ylmethyl)-amide]
23 | 1 to 300 | COc1cccc(C(=O)N[C@H](C(=O)N[C@H]2CCc3cccc4c3N(C2=O)[C@H](C(=O)NCc2c[nH]nn2)C4)C(C)C)c1 [Compound C064, (2S,SS)-5-[(S)-2-(3-Methoxy-benzoylamino)-3-methyl-butyrylamino]-4-oxo-1,2,4,5,6,7-hexahydro-azepino[3,2,1-hi]indole-2-carboxylic acid (1H-[1,2,3]triazol-4-ylmethyl)-amide]
